Reference: patent US20240180937A1, “CYTOKINE PRODUCTION SUPPRESSING COMPOSITION CONTAINING D-ALLOSE AS ACTIVE COMPONENT, AND METHOD OF TREATING OR PREVENTING DISEASE ASSOCIATED WITH CYTOKINE OVERPRODUCTION USING SAME” (NATIONAL UNIVERSITY CORPORATION KAGAWA UNIVERSITY, priority 2021, published 2024)

Legend:
Assay type in all cases: cell-based, C57BL/6N mice
[1] = system: plasmacytoid dendritic cells (pDC); experiment: Cytokine production by plasmacytoid dendritic cells (spleen or bone marrow) after TLR7/TLR9 ligand stimulation, ELISA of culture supernatant; details: for IFN-α production accompanying stimulation of pDCs / IL-12 production accompanying stimulation of pDCs: stimulation with TLR7 ligand poly(U) or TLR9 ligand CpG DNA (D19 and 1668), sugar 0.2 w/v % in glucose-free medium
Description: CD317-positive cells were prepared by magnetic bead sorting (MACS) from spleen cells obtained from C57BL/6N mice (Clea Japan, Inc.), as plasmacytoid dendritic cells (pDC) (FIG. 1(A)). CD11c-positive cells in the CD317-negative cell fraction were then prepared using magnetic beads, as conventional dendritic cells (CDC) (FIG. 1(A)). CD317-positive cells were also prepared using magnetic beads from bone marrow cells obtained from C57BL/6N mice (Clea Japan, Inc.), as bone marrow pDCs (FIG. 1(B)).
The obtained pDCs and cDCs were inoculated into a 96-well plate using glucose-free PRMI1640 medium with addition of 10 v/v % FCS, 100 μM 2-mercaptoethanol, 50 μg/ml streptomycin and 50 units/ml penicillin G, after which a rare sugar (D-allose, D-allulose or L-allulose) or D-glucose or D-fructose, was added to a final concentration of 0.2 w/v %.
The pDCs were stimulated with non-stimulating medium and TLR7 ligand (polyuridylic acid at a final concentration of 2.5 μg/ml (Poly(U) (Sigma) mixed with Lipofectamine 2000 (Thermo Fisher Scientific)), 100 nM R848 (InvivoGen), or TLR9 ligand (synthetic DNA (3 μM of D19: 5′-GGtgcatcgatgcagGGGGg-3′ and 0.03 μM of 1668: 5′-[…]-3′ (where uppercase indicates phosphorothioate DNA and lowercase indicates phosphodiester DNA))), and the IFN-α in the culture supernatant after 20 to 24 hours was measured using ELISA by InvivoGen while the IL-12p40 was measured using ELISA by Biolegend.

[2] = system: conventional dendritic cells (cDC); experiment: Cytokine production by spleen-derived conventional dendritic cells after stimulation, ELISA of culture supernatant
Description: CD317-positive cells were prepared by magnetic bead sorting (MACS) from spleen cells obtained from C57BL/6N mice (Clea Japan, Inc.), as plasmacytoid dendritic cells (pDC) (FIG. 1(A)). CD11c-positive cells in the CD317-negative cell fraction were then prepared using magnetic beads, as conventional dendritic cells (CDC) (FIG. 1(A)). CD317-positive cells were also prepared using magnetic beads from bone marrow cells obtained from C57BL/6N mice (Clea Japan, Inc.), as bone marrow pDCs (FIG. 1(B)). The obtained pDCs and cDCs were inoculated into a 96-well plate using glucose-free PRMI1640 medium with addition of 10 v/v % FCS, 100 μM 2-mercaptoethanol, 50 μg/ml streptomycin and 50 units/ml penicillin G, after which a rare sugar (D-allose, D-allulose or L-allulose) or D-glucose or D-fructose, was added to a final concentration of 0.2 w/v %. The cDCs were stimulated with non-stimulating medium, 100 nM of R848 and 1 μM of 1668, and the IL-12p40 in the culture supernatant after 20 to 24 hours was measured using ELISA by Biolegend.

[3] = system: intraperitoneal macrophages; experiment: TNF-α and nitric oxide production by intraperitoneal macrophages after LPS/IFN-γ stimulation; details: 100 ng/ml LPS and 5 ng/ml IFN-γ; sugar in the medium; supernatant after 20 to 24 hours; data not shown
Description: The obtained pDCs and cDCs were inoculated into a 96-well plate using glucose-free PRMI1640 medium with addition of 10 v/v % FCS, 100 μM 2-mercaptoethanol, 50 μg/ml streptomycin and 50 units/ml penicillin G, after which a rare sugar (D-allose, D-allulose or L-allulose) or D-glucose or D-fructose, was added to a final concentration of 0.2 w/v %. After administering 2 ml of 4 w/v % Brewer thioglycollate medium (Sigma) intraperitoneally to C57BL/6N mice, the intraperitoneal macrophages on the 3rd day were collected and used. After inoculation into the same medium as the DCs, stimulation was with 100 ng/ml of Lipopolysaccharide E. coli O111:B4 (Sigma) and 5 ng/ml of IFN-γ (Biolegend), the TNF-α in the culture supernatant after 20 to 24 hours was measured using ELISA by Biolegend and the nitric oxide was measured using a NO2/NO3 Assay Kit-C II (Colorimetric) (Griess Reagent Kit) (Dojindo Laboratories).

[4] = supernatant after 20 to 24 hours
[5] = supernatant after 20 to 24 hours, IL-12p40 ELISA

Compound | IFN-α production by pDCs after low molecular weight TLR7 ligand stimulation ([1]; low molecular weight TLR7 ligands including R848 (100 nM), sugar 0.2 w/v %, supernatant after 20 to 24 hours) | IL-12 production by pDCs after low molecular weight TLR7 ligand stimulation ([1]; low molecular weight TLR7 ligands including R848 (100 nM), sugar 0.2 w/v %, supernatant after 20 to 24 hours, IL-12p40 ELISA) | IFN-α production accompanying stimulation of pDCs [1, 4] | IL-12 production accompanying stimulation of pDCs [1, 5] | pDC cytokine production after activation in medium containing D-allose ([1]; summary statement) | IL-12 production by cDCs after CpG DNA (1668) stimulation ([2]; 1 μM 1668, sugar 0.2 w/v %, supernatant after 20 to 24 hours, IL-12p40 ELISA) | cDC cytokine production after activation in medium containing D-allose ([2]; summary statement) | TNF-α production by macrophages upon lipopolysaccharide (LPS) stimulation [3] | nitric oxide production by macrophages upon lipopolysaccharide (LPS) stimulation [3]
O=C[C@H](O)[C@H](O)[C@H](O)[C@H](O)CO [D-allose] | not reduced | not reduced | notably attenuated | notably attenuated | lowered | not lowered | not lowered | not attenuated | not attenuated
O=C(CO)[C@@H](O)[C@@H](O)[C@@H](O)CO [L-allulose] |  |  | not observed | not observed |  |  |  | not attenuated | not attenuated
O=C(CO)[C@@H](O)[C@H](O)[C@H](O)CO [D-fructose] |  |  | not observed | not observed |  |  |  | not attenuated | not attenuated
O=C(CO)[C@H](O)[C@H](O)[C@H](O)CO [D-allulose] |  |  | not observed | not observed |  |  |  | not attenuated | not attenuated
O=C[C@H](O)[C@@H](O)[C@H](O)[C@H](O)CO [D-glucose] |  |  | not observed | not observed |  |  |  |  | 
